Reference: US12215069B2, “Sirtuin modulating compounds and applications thereof” (Codagen Biosciences, Inc., priority 2022, dated 2025)

Tests used:
Sirt3 [1] = biological target: T1, Sirt3 (Homo sapiens, UniProt Q9NTG7); assay: Fluorescence-based (FdL) assay of Sirt3 deacylation activity under steady state conditions; format: biochemical; settings: for remaining activity at 1 µM: compound 1 μM; for remaining activity at 1 µM / remaining activity at 10 µM: read-out: % Control, Sirt3 deacylation activity; for remaining activity at 10 µM: compound 10 μM; for % Control, Sirt3 deacylation activity: compound 50 μM or maximum
T1 construct: The hSirt3^118-399 was purchased from Xtal Biostructures (Natick, MA); purchased Xtal Biostructures (Natick, MA)
T1 sequence (Q9NTG7 118-399): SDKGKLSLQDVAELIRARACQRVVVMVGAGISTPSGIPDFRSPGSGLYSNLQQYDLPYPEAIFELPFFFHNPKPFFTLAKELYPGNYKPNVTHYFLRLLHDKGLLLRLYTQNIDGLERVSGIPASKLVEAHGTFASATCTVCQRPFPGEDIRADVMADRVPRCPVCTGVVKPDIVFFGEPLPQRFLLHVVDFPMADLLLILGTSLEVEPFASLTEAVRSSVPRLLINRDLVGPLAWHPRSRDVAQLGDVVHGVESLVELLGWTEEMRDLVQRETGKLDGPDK
Excerpt: (§1) FdL2 (QPKK^AC-AMC) peptide, also called p53-AMC peptide, was purchased from Enzo Life Sciences (Farmingdale, NY). Carba-NAD was synthesized by Dalton Pharma (Toronto, ON). The hSirt3^118-399 was purchased from Xtal Biostructures (Natick, MA). Virtual screening hits were supplied from ChemBridge Corp. (San Diego, CA).
(§2) Effect of Hit Compounds on hSirt3^118-399 Deacetylation Activity

Sirt3 [2] = biological target: T1, Sirt3; assay: HPLC assay of Sirt3 deacylation activity under non-steady state conditions; format: biochemical; settings: compound 10 μM, 2 minute time point, read-out: % Control (10 μM), Sirt3 deacylation activity
Excerpt: as §1, §2

Compound	remaining activity at 1 µM (Sirt3 [1])	remaining activity at 10 µM (Sirt3 [1])	% Control, Sirt3 deacylation activity (Sirt3 [1])	remaining activity at 10 µM (Sirt3 [2]; [E]0/[NAD+]0 = 0.3, 50 μM NAD+)	remaining activity at 10 µM (Sirt3 [2]; [E]0/[NAD+]0 = 0.6, 50 μM NAD+)
C=C(CC)C(=O)c1ccc(OCC(=O)N[C@H](Cc2ccc(Cl)cc2)C(=O)NCCCC)c(Cl)c1Cl [FIG. 1, (2R)—N-butyl-3-(4-chlorophenyl)-2-[[2-[2,3-dichloro-4-(2-methylenebutanoyl)phenoxy]acetyl]amino]propanamide]	95.7 ± 2.6%	82.8 ± 2.3%	73.6 ± 2.4%	104 ± 3.3%	107 ± 1.6%
C=C(CC)C(=O)c1ccc(OCC(=O)NC2c3ccccc3CCc3cc(OCC(=O)NCCCC)ccc32)c(Cl)c1Cl (centres unmarked) [FIG. 28]	80.4 ± 3.1%	75.5 ± 2.3%	68.7 ± 4.0%		
